Patent US12454529B2, “Piperazine cyclic ureas” (SIRONAX LTD., priority 2020, dated 2025)
Where two headings read alike, the source gives them in different places.

Tested on: HT-29 cells
Assay: HT-29 cell necrosis/necroptosis inhibition (TNF-α + SMAC mimetic + zVAD-FMK; CellTiter-Glo cell viability)
Type: cell-based
Details: Homo sapiens, read-out: EC50 (Cell activity; Necrosis/Necroptosis Inhibitory Activity, Compounds 143-323)
In short: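 Necroptosis was driven by TNF-α 10 ng/ml plus SMAC mimetic 6 μM and zVAD-FMK 10 μM in serum-free medium, with compounds as a 10-point threefold titration. After 20 h at 37 °C, ATP-based luminescence was read; EC50 values are geometric means of duplicate curves.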

[1] = HT-29 cells, TNF-α 10 ng/ml + SMAC mimetic 6 μM + zVAD-FMK 10 μM, 20 hours, geometric mean, 10 points in duplicate

Compound `Cc1nc(CF)nn1-c1nc(N2CCN(C(=O)N3N=CC[C@H]3c3cc(F)cc(C#N)c3)CC2)ncc1F` [Compound 246] has an EC50 [1] of 0.1 to 100 nM.

Compound `Cc1nc(C(=O)N2CCC2)nn1-c1nc(N2CCN(C(=O)N3N=CC[C@H]3c3cc(F)cc(C#N)c3)CC2)ncc1F` [Compound 247, (S)-3-(1-(4-(4-(3-(azetidine-1-carbonyl)-5-methyl-1H-1,2,4-triazol-1-yl)-5-fluoropyrimidin-2-yl)piperazine-1-carbonyl)-4,5-dihydro-1H-pyrazol-5-yl)-5-fluorobenzonitrile] has an EC50 (HT-29, 20 h) of 0.1 to 100 nM.

In the case of `Cc1nc(C)n(-c2nc(N3CCN(C(=O)N4N=CC[C@H]4c4cncc(F)c4)CC3)ncc2F)n1` [Compound 248, (S)-(4-(4-(3,5-dimethyl-1H-1,2,4-triazol-1-yl)-5-fluoropyrimidin-2-yl)piperazin-1-yl)(5-(5-fluoropyridin-3-yl)-4,5-dihydro-1H-pyrazol-1-yl)methanone], the EC50 [1] is reported as 0.1 to 100 nM.

Compound `Cc1nc(CO)nn1-c1nc(N2CCN(C(=O)N3N=CC[C@H]3c3cncc(F)c3)CC2)ncc1F` [Compound 250, (S)-(4-(5-fluoro-4-(3-(hydroxymethyl)-5-methyl-1H-1,2,4-triazol-1-yl)pyrimidin-2-yl)piperazin-1-yl)(5-(5-fluoropyridin-3-yl)-4,5-dihydro-1H-pyrazol-1-yl)methanone] has an EC50 [1] of 0.1 to 100 nM.

`Cc1nc(CO)nn1-c1nc(N2CCN(C(=O)N3N=CC[C@H]3c3cc(F)cc(F)c3)CC2)ncc1F` [Compound 251, (S)-(5-(3,5-difluorophenyl)-4,5-dihydro-1H-pyrazol-1-yl)(4-(5-fluoro-4-(3-(hydroxymethyl)-5-methyl-1H-1,2,4-triazol-1-yl)pyrimidin-2-yl)piperazinyl)methanone] showed an EC50 [1] of 0.1 to 100 nM.

Work on `Cc1nc(C(N)=O)nn1-c1nc(N2CCN(C(=O)N3N=CC[C@H]3c3cc(F)cc(F)c3)CC2)ncc1F` [Compound 252, (S)-1-(2-(4-(5-(3,5-difluorophenyl)-4,5-dihydro-1H-pyrazole-1-carbonyl)piperazin-1-yl)-5-fluoropyrimidin-4-yl)-5-methyl-1H-1,2,4-triazole-3-carboxamide] yielded an EC50 [1] of 0.1 to 100 nM.

`Cc1nc(C(N)=O)nn1-c1nc(N2CCN(C(=O)N3N=CC[C@H]3c3cncc(F)c3)CC2)ncc1F` [Compound 253, (S)-1-(5-fluoro-2-(4-(5-(5-fluoropyridin-3-yl)-4,5-dihydro-1H-pyrazole-1-carbonyl)piperazin-1-yl)pyrimidin-4-yl)-5-methyl-1H-1,2,4-triazole-3-carboxamide] gave an EC50 [1] of 0.1 to 100 nM.

Work on `Cc1nc(C#N)nn1-c1nc(N2CCN(C(=O)N3N=CC[C@H]3c3cc(F)cc(F)c3)CC2)ncc1F` [Compound 254, (S)-1-(2-(4-(5-(3,5-difluorophenyl)-4,5-dihydro-1H-pyrazole-1-carbonyl)piperazin-1-yl)-5-fluoropyrimidin-4-yl)-5-methyl-1H-1,2,4-triazole-3-carbonitrile] yielded an EC50 [1] of 0.1 to 100 nM.

Work on `Cc1nc(C#N)nn1-c1nc(N2CCN(C(=O)N3N=CC[C@H]3c3cncc(F)c3)CC2)ncc1F` [Compound 255, (S)-1-(5-fluoro-2-(4-(5-(5-fluoropyridin-3-yl)-4,5-dihydro-1H-pyrazole-1-carbonyl)piperazin-1-yl)pyrimidin-4-yl)-5-methyl-1H-1,2,4-triazole-3-carbonitrile] yielded an EC50 [1] of 0.1 to 100 nM.

`Cc1nc(C)n(-c2ncc(F)c(N3CCN(C(=O)N4N=CC[C@H]4c4cc(F)cc(F)c4)CC3)n2)n1` [Compound 257, (S)-(5-(3,5-difluorophenyl)-4,5-dihydro-1H-pyrazol-1-yl)(4-(2-(3,5-dimethyl-1H-1,2,4-triazol-1-yl)-5-fluoropyrimidin-4-yl)piperazin-1-yl)methanone] was tested, and the EC50 [1] was 0.1 to 100 nM.

`Cc1nc(C)n(-c2ncc(F)c(N3CCN(C(=O)N4N=CC[C@H]4c4cc(F)cc(C#N)c4)CC3)n2)n1` [Compound 258, (S)-3-(1-(4-(2-(3,5-dimethyl-1H-1,2,4-triazol-1-yl)-5-fluoropyrimidin-4-yl)piperazine-1-carbonyl)-4,5-dihydro-1H-pyrazol-5-yl)-5-fluorobenzonitrile] gave an EC50 [1] of 0.1 to 100 nM.

With `Cc1nc(C)n(-c2nc(N3CCN(C(=O)N4N=CC[C@H]4c4cc(F)cc(F)c4)CC3)ncc2Cl)n1` [Compound 259, (S)-(4-(5-chloro-4-(3,5-dimethyl-1H-1,2,4-triazol-1-yl)pyrimidin-2-yl)piperazin-1-yl)(5-(3,5-difluorophenyl)-4,5-dihydro-1H-pyrazol-1-yl)methanone] the EC50 [1] was 0.1 to 100 nM.

In the case of `Cc1nc(C)n(-c2nc(N3CCN(C(=O)N4N=CC[C@H]4c4cc(F)cc(C#N)c4)CC3)ncc2Cl)n1` [Compound 260, (S)-3-(1-(4-(5-chloro-4-(3,5-dimethyl-1H-1,2,4-triazol-1-yl)pyrimidin-2-yl)piperazine-1-carbonyl)-4,5-dihydro-1H-pyrazol-5-yl)-5-fluorobenzonitrile], the EC50 [1] is reported as 0.1 to 100 nM.

Compound `Cc1cnn(C)c1-c1ncc(F)c(N2CCN(C(=O)N3N=CCC3c3ncccc3Cl)CC2)n1` (centres unmarked) [Compound 261, (5-(3-chloropyridin-2-yl)-4,5-dihydro-1H-pyrazol-1-yl)(4-(2-(1,4-dimethyl-1H-pyrazol-5-yl)-5-fluoropyrimidin-4-yl)piperazin-1-yl)methanone] has an EC50 [1] of 0.1 to 100 nM.

`[2H]C1(c2cc(F)cc(F)c2)CC=NN1C(=O)N1CCN(c2ncc(F)c(-n3nc(C)nc3C)n2)CC1` (centres unmarked) [Compound 262, (5-(3,5-difluorophenyl)-4,5-dihydro-1H-pyrazol-1-yl-5-d)(4-(4-(3,5-dimethyl-1H-1,2,4-triazol-1-yl)-5-fluoropyrimidin-2-yl)piperazin-1-yl)methanone] was tested, and the EC50 [1] was 0.1 to 100 nM.

`Cc1nc(C)n(-c2ncc(F)c(N3CCN(C(=O)N4N=CCC4c4ncccc4Cl)CC3)n2)n1` (centres unmarked) [Compound 263, (5-(3-chloropyridin-2-yl)-4,5-dihydro-1H-pyrazol-1-yl)(4-(2-(3,5-dimethyl-1H-1,2,4-triazol-1-yl)-5-fluoropyrimidin-4-yl)piperazin-1-yl)methanone] was tested, and the EC50 [1] was 100 to 1000 nM.

`Cc1nc(C)n(-c2nc(N3CCN(C(=O)N4N=CC[C@H]4c4cc(F)cc(F)c4F)CC3)ncc2F)n1` [Compound 264, (S)-(4-(4-(3,5-dimethyl-1H-1,2,4-triazol-1-yl)-5-fluoropyrimidin-2-yl)piperazin-1-yl)(5-(2,3,5-trifluorophenyl)-4,5-dihydro-1H-pyrazol-1-yl)methanone] was tested, and the EC50 [1] was 0.1 to 100 nM.

Compound `Cc1nc(C)n(-c2nc(N3CCN(C(=O)N4N=CC[C@@H]4c4cc(F)cc(F)c4F)CC3)ncc2F)n1` [Compound 265, (R)-(4-(4-(3,5-dimethyl-1H-1,2,4-triazol-1-yl)-5-fluoropyrimidin-2-yl)piperazin-1-yl)(5-(2,3,5-trifluorophenyl)-4,5-dihydro-1H-pyrazol-1-yl)methanone] has an EC50 [1] of 100 to 1000 nM.

`Cc1cnn(C)c1-c1nc(N2CCN(C(=O)N3N=CC[C@H]3c3cc(F)cc(C#N)c3)CC2)sc1CO` [Compound 266, (S)-3-(1-(4-(4-(1,4-dimethyl-1H-pyrazol-5-yl)-5-(hydroxymethyl)thiazol-2-yl)piperazine-1-carbonyl)-4,5-dihydro-1H-pyrazol-5-yl)-5-fluorobenzonitrile] was tested, and the EC50 [1] was 1000 to 10000 nM.

In the case of `Cc1cnn(C)c1-c1nc(N2CCN(C(=O)N3N=CC[C@H]3c3cc(F)cc(F)c3)CC2)sc1CO` [Compound 267, (S)-(5-(3,5-difluorophenyl)-4,5-dihydro-1H-pyrazol-1-yl)(4-(4-(1,4-dimethyl-1H-pyrazol-5-yl)-5-(hydroxymethyl)thiazol-2-yl)piperazin-1-yl)methanone], the EC50 [1] is reported as 1000 to 10000 nM.
